From patent US10308667B2, “Oxadiazolopyridine derivatives for use as ghrelin O-acyl transferase (GOAT) inhibitors” (Boehringer Ingelheim International GmbH, priority 2016, dated 2019)

Biological target: human GOAT (Homo sapiens (Human), UniProt Q96T53)
Experiment: Determination of hGOAT Activity in HEK293 Cells after Incubation with Test Compound
Assay type: cell-based
Conditions: HEK293 cells stably transfected with preproghrelin and human GOAT; octanoate-BSA 100 μM; acyl-ghrelin in medium by ELISA after 5 hours
Description: Determination of hGOAT Activity in HEK293 Cells after Incubation with Test Compound
HEK293 cells stably transfected with two expression vectors, one coding for preproghrelin cDNA and a second for the expression of human GOATcDNA are used as a cellular model. After feeding the cells with octanoic acid for 5 hours, acyl-ghrelin is measured in cell culture medium by an ELISA procedure.
Cellline: Hek293 hGOAT/PPGhrl Clone #1B8Sodium octanoate, Sigma, Cat.-No. C5038
BD Poly-D-Lysin 384-well Plates, black-clear polystyrene BD Bioscience Cat.-No. […] ELISA human acylated Ghrelin Kit purchased from Bertin Pharman (detailed composition of buffers e.g. wash-puffer, ELISA buffer not known)
Cells are plated with a density of 5000 cells/well in 384-well poly-D-lysin plates and incubated for 1 day at 37° C., 5% CO2 in DMEM medium, 10% FCS, 1×NEAA, Puromycin (0.5 μg/ml) and G418 (1 mg/ml). Then the medium is changed to a identical medium without FCS and containing Octanoate-BSA (final concentration 100 μM each) and compound in DMSO (final DMSO concentration 0.3%). After incubation for 5 hours acylghrelin in the medium is measured by ELISA
The medium sample is diluted 1:25 in Elisa buffer, A 25 ul aliquot is transferred to a 384-well ELISA plate previously washed 4 times with 100 μL wash buffer, and 25 μl tracer-solution is added. After incubation overnight (˜20 h) at 4° C. temperature the plate is washed 4 times with 100 μl wash-buffer per well. Finally 50 μl Ellman's reagent is added to each well and the plate is incubated in the dark for 20 minutes. The absorbance is measured at 405 nm in an Envision multilabel reader and the amount of acylated ghrelin is calculated according to a acylated ghrelin standard curve provided in the same plate.
The analysis of the data is performed by calculation of the percentage of acyl-ghrelin produced in the presence of test compound compared to the amount of acyl-ghrelin produced in the vehicle control samples. An inhibitor of the GOAT enzyme will give values between 100% CTL (no inhibition) and 0% CTL (complete inhibition). IC50 values are calculated with Assay Explorer or other suited software based on curve fitting of results of 8 different compound concentrations.

human GOAT, sequence (Q96T53 whole entry): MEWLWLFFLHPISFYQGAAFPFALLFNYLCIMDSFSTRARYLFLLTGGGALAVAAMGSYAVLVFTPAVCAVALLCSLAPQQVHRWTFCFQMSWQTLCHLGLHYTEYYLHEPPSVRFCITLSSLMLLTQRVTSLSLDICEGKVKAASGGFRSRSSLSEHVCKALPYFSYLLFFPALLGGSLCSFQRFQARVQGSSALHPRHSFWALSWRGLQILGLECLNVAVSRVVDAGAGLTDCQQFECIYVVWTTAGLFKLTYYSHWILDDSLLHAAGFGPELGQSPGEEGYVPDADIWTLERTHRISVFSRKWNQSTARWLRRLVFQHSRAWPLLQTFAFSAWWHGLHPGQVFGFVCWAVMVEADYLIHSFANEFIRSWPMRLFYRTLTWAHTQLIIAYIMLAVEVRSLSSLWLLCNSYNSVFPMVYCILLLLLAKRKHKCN

IC50 | Structure (SMILES)
0.026 nM | Cc1nc2nonc2c(N)c1Cc1ccc(Br)c(N2CCOCC2)n1 [Example 123, 6-(5-Bromo-6-morpholin-4-yl-pyridin-2-ylmethyl)-5-methyl-[1,2,5]oxadiazolo[3,4-b]pyridin-7-ylamine]
0.02 nM | Cc1nc2nonc2c(N)c1Cc1ccc(C#N)c(NC2CC2)n1 [Example 139, 6-(7-Amino-5-methyl-[1,2,5]oxadiazolo[3,4-b]pyridin-6-ylmethyl)-2-cyclopropylamino-nicotinonitrile]
0.093 nM | Cc1nc2nonc2c(N)c1Cc1ccc(C#N)c(OCC(F)F)n1 [Example 109, 6-(7-Amino-5-methyl-[1,2,5]oxadiazolo[3,4-b]pyridin-6-ylmethyl)-2-(2,2-difluoro-ethoxy)-nicotinonitrile]
3.9 nM | Cc1nc2nonc2c(N)c1Cc1ccc(OCC(F)(F)F)c(C#N)n1 [Example 114, 6-(7-Amino-5-methyl-[1,2,5]oxadiazolo[3,4-b]pyridin-6-ylmethyl)-3-(2,2,2-trifluoro-ethoxy)-pyridine-2-carbonitrile]
3.5 nM | Cc1nc2nonc2c(N)c1Cc1ccc(-n2ccc(C(F)(F)F)n2)c(C#N)n1 [Example 156, 6-(7-Amino-5-methyl-[1,2,5]oxadiazolo[3,4-b]pyridin-6-ylmethyl)-3-(3-trifluoromethyl-pyrazol-1-yl)-pyridine-2-carbonitrile]
0.43 nM | Cc1nc2nonc2c(N)c1Cc1ccc(C(F)(F)F)c(C(N)=O)n1 [Example 89, 6-(7-Amino-5-methyl-[1,2,5]oxadiazolo[3,4-b]pyridin-6-ylmethyl)-3-trifluoromethyl-pyridine-2-carboxylic Acid Amide]
4.4 nM | Cc1nc2nonc2c(N)c1Cc1ccc(F)c(C#N)n1 [Example 25, 6-(7-Amino-5-methyl-[1,2,5]oxadiazolo[3,4-b]pyridin-6-ylmethyl)-3-fluoro-pyridine-2-carbonitrile]
0.32 nM | Cc1nc2nonc2c(N)c1Cc1ccc2c(n1)OCCO2 [Example 18, 6-(2,3-Dihydro-[1,4]dioxino[2,3-b]pyridin-6-ylmethyl)-5-methyl-[1,2,5]oxadiazolo[3,4-b]pyridin-7-ylamine]
0.48 nM | Cc1nc2nonc2c(N)c1Cc1cccc(C(C)(C)C#N)n1 [Example 63, 2-[6-(7-Amino-5-methyl-[1,2,5]oxadiazolo[3,4-b]pyridin-6-ylmethyl)-pyridin-2-yl]-2-methyl-propionitrile]
0.26 nM | Cc1nc2nonc2c(N)c1Cc1ccc(-n2cccn2)c(C#N)n1 [Example 157, 6-(7-Amino-5-methyl-[1,2,5]oxadiazolo[3,4-b]pyridin-6-ylmethyl)-3-pyrazol-1-yl-pyridine-2-carbonitrile]
1.2 nM | Cc1nc2nonc2c(N)c1Cc1ccc(-n2cc(F)cn2)c(C#N)n1 [Example 155, 6-(7-Amino-5-methyl-[1,2,5]oxadiazolo[3,4-b]pyridin-6-ylmethyl)-3-(4-fluoro-pyrazol-1-yl)-pyridine-2-carbonitrile]
3.8 nM | Cc1nc2nonc2c(N)c1Cc1ncc(C#N)cn1 [Example 77, 2-(7-amino-5-methyl-[1,2,5]oxadiazolo[3,4-b]pyridin-6-ylmethyl)pyrimidine-5-carbonitrile]
0.48 nM | Cc1nc2nonc2c(N)c1Cc1cccc(-c2c(C)noc2C)n1 [Example 60, 6-[6-(3,5-Dimethyl-isoxazol-4-yl)-pyridin-2-ylmethyl]-5-methyl-[1,2,5]oxadiazolo[3,4-b]pyridin-7-ylamine]
0.3 nM | Cc1nc2nonc2c(N)c1Cc1ccc(OC(F)(F)F)c(C#N)n1 [Example 33, 6-(7-Amino-5-methyl-[1,2,5]oxadiazolo[3,4-b]pyridin-6-ylmethyl)-3-trifluoromethoxy-pyridine-2-carbonitrile]
31 nM | Cc1nc2nonc2c(N)c1Cc1ccc(C#N)c(=O)[nH]1 [Example 113, 6-(7-Amino-5-methyl-[1,2,5]oxadiazolo[3,4-b]pyridin-6-ylmethyl)-2-oxo-1,2-dihydro-pyridine-3-carbonitrile]
0.25 nM | Cc1nc2nonc2c(N)c1Cc1ccc(C#N)c(NCC2(C)CCOC2)n1 (stereo not drawn) [Example 147, 6-(7-Amino-5-methyl-[1,2,5]oxadiazolo[3,4-b]pyridin-6-ylmethyl)-2-[(3-methyl-tetrahydro-furan-3-ylmethyl)-amino]-nicotinonitrile]
1.2 nM | Cc1nc2nonc2c(N)c1Cc1ccc(OCCF)c(C#N)n1 [Example 115, 6-(7-Amino-5-methyl-[1,2,5]oxadiazolo[3,4-b]pyridin-6-ylmethyl)-3-(2-fluoro-ethoxy)-pyridine-2-carbonitrile]

IC50 | Structure (SMILES)
0.48 nM | Cc1nc2nonc2c(N)c1Cc1cccc(C(F)(F)F)n1 [Example 52, 5-Methyl-6-(6-trifluoromethyl-pyridin-2-ylmethyl)-[1,2,5]oxadiazolo[3,4-b]pyridin-7-ylamine]
0.045 nM | Cc1nc2nonc2c(N)c1Cc1ccc(Br)c(NCC2(C)COC2)n1 [Example 121, 6-{5-Bromo-6-[(3-methyl-oxetan-3-ylmethyl)-amino]-pyridin-2-ylmethyl}-5-methyl-[1,2,5]oxadiazolo[3,4-b]pyridin-7-ylamine]
3.9 nM | Cc1nc2nonc2c(N)c1Cc1cccc(C(=O)N(C)C)n1 [Example 55, 6-(7-Amino-5-methyl-[1,2,5]oxadiazolo[3,4-b]pyridin-6-ylmethyl)-pyridine-2-carboxylic Acid Dimethylamide]
2.7 nM | Cc1nc2nonc2c(N)c1Cc1ncc(Cl)cn1 [Example 30, 6-(5-Chloro-pyrimidin-2-ylmethyl)-5-methyl-[1,2,5]oxadiazolo[3,4-b]pyridin-7-ylamine]
7.4 nM | Cc1nc2nonc2c(N)c1Cc1cccc(C#N)n1 [Example 164, 6-(7-Amino-5-methyl-[1,2,5]oxadiazolo[3,4-b]pyridin-6-ylmethyl)-pyridine-2-carbonitrile]
0.075 nM | Cc1nc2nonc2c(N)c1Cc1ccc(C#N)c(N2CC(C)(O)C2)n1 [Example 138, 6-(7-Amino-5-methyl-[1,2,5]oxadiazolo[3,4-b]pyridin-6-ylmethyl)-2-(3-hydroxy-3-methyl-azetidin-1-yl)-nicotinonitrile]
0.074 nM | CSc1nc(Cc2c(C)nc3nonc3c2N)ccc1Br [Example 102, 6-(5-Bromo-6-methylsulfanyl-pyridin-2-ylmethyl)-5-methyl-[1,2,5]oxadiazolo[3,4-b]pyridin-7-ylamine]
0.072 nM | Cc1nc2nonc2c(N)c1Cc1ccc(Br)c(OCC(C)(F)F)n1 [Example 99, 6-[5-Bromo-6-(2,2-difluoro-propoxy)-pyridin-2-ylmethyl]-5-methyl-[1,2,5]oxadiazolo[3,4-b]pyridin-7-ylamine]
0.034 nM | Cc1nc2nonc2c(N)c1Cc1ccc(Br)c(OCCF)n1 [Example 100, 6-[5-Bromo-6-(2-fluoro-ethoxy)-pyridin-2-ylmethyl]-5-methyl-[1,2,5]oxadiazolo[3,4-b]pyridin-7-ylamine]
2 nM | Cc1nc2nonc2c(N)c1Cc1cc(C(F)(F)F)c(C#N)cn1 [Example 74, 6-(7-Amino-5-methyl-[1,2,5]oxadiazolo[3,4-b]pyridin-6-ylmethyl)-4-trifluoromethyl-nicotinonitrile]
19 nM | Cc1nc2nonc2c(N)c1Cc1cccc(S(C)(=O)=O)n1 [Example 86, 6-(6-Methanesulfonyl-pyridin-2-ylmethyl)-5-methyl-[1,2,5]oxadiazolo[3,4-b]pyridin-7-ylamine]
0.24 nM | CNC(=O)c1cccc(Cc2c(C)nc3nonc3c2N)n1 [Example 54, 6-(7-Amino-5-methyl-[1,2,5]oxadiazolo[3,4-b]pyridin-6-ylmethyl)-pyridine-2-carboxylic acid methylamide]
1.2 nM | Cc1nc2nonc2c(N)c1Cc1ncc(C#N)c(N)n1 [Example 45, 4-amino-2-(7-amino-5-methyl-[1,2,5]oxadiazolo[3,4-b]pyridin-6-ylmethyl)pyrimidine-5-carbonitrile]
3.2 nM | Cc1nc2nonc2c(N)c1Cc1nccc(C(F)(F)F)n1 [Example 34, 5-Methyl-6-(4-trifluoromethyl-pyrimidin-2-ylmethyl)-[1,2,5]oxadiazolo[3,4-b]pyridin-7-ylamine]
7 nM | Cc1nc(Cc2c(C)nc3nonc3c2N)ncc1C#N [Example 81, 2-(7-amino-5-methyl-[1,2,5]oxadiazolo[3,4-b]pyridin-6-ylmethyl)-4-methylpyrimidine-5-carbonitrile]
20 nM | Cc1nc2nonc2c(N)c1Cc1nccc(C#N)n1 [Example 51, 2-(7-amino-5-methyl-[1,2,5]oxadiazolo[3,4-b]pyridin-6-ylmethyl)pyrimidine-4-carbonitrile]
